Laboratory results reported in patent US9944583B2, “Methods for ameliorating and preventing central nervous system inflammation” (THE REGENTS OF THE UNIVERSITY OF CALIFORNIA, priority 2007, dated 2018).

Key:
[1] = tested on: primary neuronal cultures; experiment: DHE oxidation (superoxide and/or hydrogen peroxide production) in primary neuronal cultures exposed to ketamine; format: cell-based, mouse
[2] = tested on: pyramidal layer of CA1 in the aged hippocampus; experiment: in vivo superoxide production in CA1 of the aged hippocampus (DHE confocal imaging); set-up: species or system mouse; details: old mice; C3 by oral administration; apocynin
Procedure: Analysis of superoxide and/or hydrogen peroxide production by confocal imaging of in vivo dihydroethidium (DHE) oxidation. Mice will be injected intraperitoneally (i.p.) with dihydroethidium. Briefly, two serial i.p. injections of freshly prepared dihydroethidium (27 mg/kg) are given at 30 minute intervals. Eighteen hours later, mice are anesthetized with inhaled halothane, and are perfused intracardially with cold saline followed by 4% paraformaldehyde in PBS. Brains are removed and post-fixed in 2% paraformaldehyde for >24 h. Following fixation, brains are cut into 50 μm coronal sections and co-labeled with the appropriate primary and secondary antibodies for fluorescence visualization. […] First, an image is taken in the fluorescence channel of the ICC-fluorophor and then the channel is switched to image fluorescence from DHE oxidation. […] Using the image pairs for each field and MetaMorph software, an analyst blind to the group circles the outline of each ICC-labeled cell and then switches to the DHE oxidation image. The average fluorescence intensity for each cell of interest is logged, and values averaged to determine the mean fluorescence/cell.

[3] = tested on: PV-interneurons in mouse prefrontal cortex; experiment: two-day ketamine treatment of mice: oxidized DHE, parvalbumin and GAD67 in prefrontal cortex; format: in vivo
Procedure: Animals and treatments. […] Male C57BL6 mice were obtained from Jackson Labs, Bar Harbor, Me., at 8-12 weeks and housed in our facility until 15 weeks when they were used for experiments. Ketamine (30 mg/kg) was applied intraperitoneally (IP) on two consecutive days at around 4 pm. DHE was applied 30 min after the last ketamine injection as described (19, 20). Briefly, two serial i.p. injections of freshly prepared dihydroethidium (27 mg/kg) are given at 30 minute intervals. Eighteen hours later, mice are anesthetized with inhaled halothane, and perfused intracardially with cold saline followed by 4% paraformaldehyde in PBS. The Nox inhibitor, apocynin (5 mg/kg/day) was given in the drinking water for a total of seven days, with an assumed intake of […] H2O/mouse/day, and ketamine was applied on the last two days. […] All animal studies were approved by the Animal Care Program at the University of California, San Diego, and are in accordance the PHS Guide for the Care and Use of Laboratory Animals, USDA Regulations, and the AVMA Panel on Euthanasia.
Immunohistochemistry: Brains were frontally sliced in a vibratome into 50 μm coronal sections encompassing the prefrontal cortex region (from Bregma 2.0 to 1.3). Sequential slices were processed for floating-section double immunohistochemistry for the detection of parvalbumin and GAD67. Antigen retrieval was performed by incubation of the slices in 1% sodium borohydride for 15 min as described (see reference 34, below), followed by washing in PBS and incubation in 10% normal goat serum in PBS for 16 h at 4° C. Primary antibodies (Calbindin: 1:5000: Calretinin: 1:2000; Parvalbumin: 1:3000, all rabbit polyclonals from Swant, Bellinzona, Switzerland. GAD67: 1:1000, from Chemicon-Millipore, Temecula, Calif.) were diluted in 2% normal goat serum in PBS and applied to the slices for 18 h at 4° C., after which slices were washed in PBS and incubated in a 1:1000 dilution of ALEXAFLUOR™ (Molecular Probes, Invitrogen, Carlsbad, Calif.) conjugated goat anti-rabbit (568) or goat anti-mouse (488) antibodies for 1 hr at room temperature (rt). Slices were washed in PBS and mounted sequentially in glass slides using […]™ (Vector Laboratories, Burlingame, Calif.), covered with a coverslip and allowed to dry for at least 24 h before confocal imaging.
Six slices were analyzed per animal.
Analysis of superoxide and/or hydrogen peroxide production by confocal imaging of in vivo dihydroethidium (DHE) oxidation. Mice will be injected intraperitoneally (i.p.) with dihydroethidium.

[4] = tested on: synaptosomal mitochondria; experiment: respiration of synaptosomal mitochondria (oximetry); details: apocynin 0-200 μM in synaptosomes
[5] = apocynin 5 mg/kg/day 1 week in drinking water, C3 1.0 mg/kg/day one month by mini-pumps

## COc1cc(C(C)=O)ccc1O [apocynin, 4-hydroxy-3-methoxyacetophenone]
[1]; co-exposure with ketamine 0.5 μM 24 h, muscimol 10 μM, C3 20 μM, apocynin 0.5 mM
  effect on ketamine-mediated increase in oxidized DHE: significantly reduced
[1]; ketamine with 1 μM C3 or 500 μM apocynin for 24 h
  effect on ketamine-mediated increase in ROS / free radical production (DHE fluorescence): prevented
[2]
  effect on elevated levels of superoxide in the pyramidal layer of CA1 in the aged hippocampus: prevented
[3]; [5]
  effect on ketamine-induced increase in oxidized DHE in vivo: prevented
  effect on ketamine-mediated loss of parvalbumin immunoreactivity in PV-interneurons in vivo: completely prevented
[3]; apocynin in the drinking water
  effect on ketamine-mediated decrease in parvalbumin and GAD67 immunoreactivity in PFC: prevented
[4]
  mitochondrial respiration: did not affect
